# Assay results taken from ChEMBL document CHEMBL4229439, “Design, synthesis and antimycobacterial activity of 3,5-dinitrobenzamide derivatives containing fused ring moieties” (2018).
# Calls of active or inactive are those of the source. The rule behind the calls is not given here.
# What was measured:
# [1] = test system: Mycobacterium tuberculosis; test: Antimycobacterial activity against isoniazid/rifampicin-resistant Mycobacterium tuberculosis isolate 16833 after 7 days by Alamar blue assay; type: functional; details: isolate 16833, 168 h
# [2] = test system: Mycobacterium tuberculosis; test: Antimycobacterial activity against isoniazid/rifampicin-resistant Mycobacterium tuberculosis isolate 16995 after 7 days by Alamar blue assay; type: functional; details: isolate 16995, 168 h
# [3] = test system: Mycobacterium tuberculosis; test: Antimycobacterial activity against isoniazid/rifampicin-resistant Mycobacterium tuberculosis isolate 16833 up to 10 ug/ml after 7 days by Alamar blue assay; type: functional, organism-based
# [4] = test system: Mycobacterium tuberculosis; test: Antimycobacterial activity against isoniazid/rifampicin-resistant Mycobacterium tuberculosis isolate 16995 up to 10 ug/ml after 7 days by Alamar blue assay; type: functional, organism-based
SMILES,MIC [1] [µg/mL],MIC [2] [µg/mL],Activity [3],Activity [4]
O=C(NCc1ccc2c(c1)CCN(Cc1cccc(F)c1)C2)c1cc([N+](=O)[O-])cc([N+](=O)[O-])c1,0.074,0.076,–,–
O=C(NCc1ccc2c(c1)CCN(c1ccc(C(F)(F)F)cc1)C2)c1cc([N+](=O)[O-])cc([N+](=O)[O-])c1,0.152,0.302,–,–
O=C(NCc1ccc2c(c1)CN(Cc1ccc(C(F)(F)F)cc1)C2)c1cc([N+](=O)[O-])cc([N+](=O)[O-])c1,0.278,0.308,–,–
O=C(NCc1ccc2c(c1)CCN(Cc1ccc(Cl)cc1)C2)c1cc([N+](=O)[O-])cc([N+](=O)[O-])c1,0.143,0.077,–,–
COc1ccc(CN2Cc3ccc(CNC(=O)c4cc([N+](=O)[O-])cc([N+](=O)[O-])c4)cc3C2)cc1,0.286,0.606,–,–
O=C(NCc1ccc2c(c1)CNC2)c1cc([N+](=O)[O-])cc([N+](=O)[O-])c1,> 10,> 10,inactive,inactive
O=C(NCc1ccc2c(c1)CN(Cc1ccc(OC(F)(F)F)cc1)C2)c1cc([N+](=O)[O-])cc([N+](=O)[O-])c1,0.565,0.61,–,–
NNC(=O)c1ccncc1 [ISONIAZID],> 40,> 40,–,–
O=C(NCc1ccc2c(c1)CN(c1ccc(F)cc1)C2)c1cc([N+](=O)[O-])cc([N+](=O)[O-])c1,0.066,0.147,–,–
O=c1nc(N2CCN(CC3CCCCC3)CC2)sc2c([N+](=O)[O-])cc(C(F)(F)F)cc12 [MACOZINONE],< 0.016,< 0.016,–,–
O=C(NCc1ccc2c(c1)CCN(c1ccc(F)cc1)C2)c1cc([N+](=O)[O-])cc([N+](=O)[O-])c1,0.074,0.078,–,–
O=C(NCc1ccc2c(c1)CN(Cc1ccc(F)cc1)C2)c1cc([N+](=O)[O-])cc([N+](=O)[O-])c1,0.073,0.115,–,–
CO[C@H]1/C=C/O[C@@]2(C)Oc3c(C)c(O)c4c(O)c(c(/C=N/N5CCN(C)CC5)c(O)c4c3C2=O)NC(=O)/C(C)=C\C=C\[C@H](C)[C@H](O)[C@@H](C)[C@@H](O)[C@@H](C)[C@H](OC(C)=O)[C@@H]1C [RIFAMPIN],> 40,> 40,–,–
